Reference: ChEMBL document CHEMBL4673395, “Discovery of PIPE-359, a Brain-Penetrant, Selective M Receptor Antagonist with Robust Efficacy in Murine MOG-EAE” (ACS Med Chem Lett, 2021)

Tests used:
[1] = target: T1, Muscarinic acetylcholine receptor M1 (Homo sapiens, UniProt P11229); assay: Antagonist activity at human recombinant muscarinic receptor M1 expressed in CHO-K1 cells assessed as EC80 acetylcholine-induced calcium flux incubated for 30 mins; type: functional, cell-based
T1 sequence (P11229 whole entry): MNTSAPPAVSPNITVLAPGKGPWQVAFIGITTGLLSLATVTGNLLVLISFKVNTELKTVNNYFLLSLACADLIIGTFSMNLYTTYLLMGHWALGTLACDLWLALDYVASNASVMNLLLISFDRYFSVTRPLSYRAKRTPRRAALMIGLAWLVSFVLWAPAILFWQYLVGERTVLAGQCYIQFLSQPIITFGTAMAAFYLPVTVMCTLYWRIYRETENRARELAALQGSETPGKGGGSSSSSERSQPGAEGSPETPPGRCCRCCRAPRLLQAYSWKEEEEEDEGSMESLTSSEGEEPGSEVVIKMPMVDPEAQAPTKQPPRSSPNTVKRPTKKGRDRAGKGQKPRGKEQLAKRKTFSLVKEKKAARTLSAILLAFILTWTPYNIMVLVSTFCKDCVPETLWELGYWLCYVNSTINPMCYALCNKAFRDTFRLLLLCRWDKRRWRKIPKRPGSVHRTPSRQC

[2] = Metabolic stability in rat liver microsomes assessed as parent compound remaining at 1 uM measured at 15 mins by LC-MS/MS analysis; type: ADME, Microsome; settings: read-out: Stabilty
[3] = target: Muscarinic acetylcholine receptor M3 (Homo sapiens, UniProt P20309); assay: Antagonist activity at human recombinant muscarinic receptor M3 expressed in CHO-K1 cells assessed as EC80 acetylcholine-induced calcium flux incubated for 30 mins; type: functional, cell-based; settings: read-out: pIC50 (converted)
Sequence of Muscarinic acetylcholine receptor M3 (P20309 whole entry): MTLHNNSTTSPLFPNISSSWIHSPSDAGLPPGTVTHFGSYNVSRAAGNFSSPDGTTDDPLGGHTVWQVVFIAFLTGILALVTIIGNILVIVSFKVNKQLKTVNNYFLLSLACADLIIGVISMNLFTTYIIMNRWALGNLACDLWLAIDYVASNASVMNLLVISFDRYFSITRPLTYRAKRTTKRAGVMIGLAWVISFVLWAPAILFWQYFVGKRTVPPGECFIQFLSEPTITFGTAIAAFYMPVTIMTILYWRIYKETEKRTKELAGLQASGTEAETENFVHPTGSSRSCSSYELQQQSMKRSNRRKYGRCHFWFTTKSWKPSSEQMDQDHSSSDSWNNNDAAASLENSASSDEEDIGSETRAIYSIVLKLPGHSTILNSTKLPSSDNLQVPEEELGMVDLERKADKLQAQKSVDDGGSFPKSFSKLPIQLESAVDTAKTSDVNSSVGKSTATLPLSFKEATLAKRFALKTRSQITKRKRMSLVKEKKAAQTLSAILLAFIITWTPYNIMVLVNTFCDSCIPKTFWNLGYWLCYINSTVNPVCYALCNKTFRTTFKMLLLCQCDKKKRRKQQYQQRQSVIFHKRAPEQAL

[4] = target: T2, Muscarinic acetylcholine receptor M2 (Homo sapiens, UniProt P08172); assay: Antagonist activity at human recombinant muscarinic receptor M2 expressed in CHO-K1 cells assessed as EC80 acetylcholine-induced calcium flux incubated for 30 mins; type: functional, cell-based; settings: read-out: pIC50 (converted)
T2 sequence (P08172 whole entry): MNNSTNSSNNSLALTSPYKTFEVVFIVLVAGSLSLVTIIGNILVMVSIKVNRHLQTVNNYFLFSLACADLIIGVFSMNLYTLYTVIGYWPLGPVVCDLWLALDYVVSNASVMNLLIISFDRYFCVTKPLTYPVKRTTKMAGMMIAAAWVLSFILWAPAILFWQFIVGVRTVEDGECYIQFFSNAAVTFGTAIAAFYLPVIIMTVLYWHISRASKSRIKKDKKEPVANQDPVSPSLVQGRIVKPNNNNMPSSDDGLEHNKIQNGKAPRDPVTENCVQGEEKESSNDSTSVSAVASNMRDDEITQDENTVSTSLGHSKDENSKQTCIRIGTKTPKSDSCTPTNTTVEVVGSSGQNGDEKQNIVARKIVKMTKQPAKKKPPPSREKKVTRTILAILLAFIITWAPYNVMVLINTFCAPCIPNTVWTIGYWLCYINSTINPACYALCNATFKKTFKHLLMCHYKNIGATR

[5] = Apparant permeability across apical to basolateral side in dog MDCK-MDR1 cells; type: ADME, cell-based, Canis lupus familiaris
[6] = In vivo receptor occupancy at muscarinic M1 receptor in myelin oligodendrocyte glycoprotein (MOG)-induced experimental autoimmune encephalitis C57BL/6 mouse model assessed as decrease in occupancy at 30 mg/kg, po measured after 24 hrs; type: functional
[7] = target: Voltage-gated inwardly rectifying potassium channel KCNH2 (Homo sapiens, UniProt Q12809); assay: Inhibition of human ERG expressed in HEK293 cells at 3 uM by patch clamp assay; type: cell-based; settings: hek293, 3 µM
Sequence of Voltage-gated inwardly rectifying potassium channel KCNH2 (Q12809 whole entry): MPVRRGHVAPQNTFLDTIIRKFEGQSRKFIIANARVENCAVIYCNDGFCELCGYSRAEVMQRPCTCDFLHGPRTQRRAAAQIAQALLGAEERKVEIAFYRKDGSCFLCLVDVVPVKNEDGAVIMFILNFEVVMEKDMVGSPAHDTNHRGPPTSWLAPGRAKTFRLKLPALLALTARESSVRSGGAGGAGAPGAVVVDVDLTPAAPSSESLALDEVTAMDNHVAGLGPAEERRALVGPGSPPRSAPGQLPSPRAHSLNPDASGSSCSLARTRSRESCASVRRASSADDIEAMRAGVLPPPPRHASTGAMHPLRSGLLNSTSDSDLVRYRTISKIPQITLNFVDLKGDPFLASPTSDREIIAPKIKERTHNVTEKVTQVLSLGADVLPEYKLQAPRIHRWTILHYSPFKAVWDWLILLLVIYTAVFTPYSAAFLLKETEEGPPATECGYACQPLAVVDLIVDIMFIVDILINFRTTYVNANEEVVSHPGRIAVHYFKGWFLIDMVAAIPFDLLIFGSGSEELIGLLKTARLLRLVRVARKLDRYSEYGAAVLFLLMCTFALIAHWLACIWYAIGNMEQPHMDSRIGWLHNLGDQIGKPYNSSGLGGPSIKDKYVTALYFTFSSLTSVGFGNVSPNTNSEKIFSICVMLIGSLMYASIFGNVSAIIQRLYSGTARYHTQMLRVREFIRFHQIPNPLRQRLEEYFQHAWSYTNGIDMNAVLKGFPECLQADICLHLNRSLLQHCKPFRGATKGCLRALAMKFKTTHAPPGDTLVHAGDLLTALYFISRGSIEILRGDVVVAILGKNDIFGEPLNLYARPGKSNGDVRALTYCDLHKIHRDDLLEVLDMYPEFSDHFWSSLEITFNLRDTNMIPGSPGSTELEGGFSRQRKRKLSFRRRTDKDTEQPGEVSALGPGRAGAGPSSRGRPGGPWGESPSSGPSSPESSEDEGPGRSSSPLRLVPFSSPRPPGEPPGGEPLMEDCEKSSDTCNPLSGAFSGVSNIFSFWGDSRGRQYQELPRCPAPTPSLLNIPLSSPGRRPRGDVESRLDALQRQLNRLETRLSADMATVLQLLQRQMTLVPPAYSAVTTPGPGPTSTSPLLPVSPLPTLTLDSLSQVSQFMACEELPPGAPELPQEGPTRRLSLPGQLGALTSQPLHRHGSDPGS

[8] = Brain to plasma permeability coefficient, Kp of the compound in rat at 10 mg/kg, po measured after 2 hrs by LC-MS/MS; type: ADME, organism-based; settings: read-out: K(p,uu,brain)
[9] = Fraction unbound in rat plasma at 10 mg/kg, po measured by LC-MS/MS; type: ADME, organism-based
[10] = Plasma concentration in rat at 10 mg/kg, po measured after 2 hrs by LC-MS/MS; type: ADME, organism-based
[11] = Fraction unbound rat plasma at 10 mg/kg, po measured after 2 hrs by LC-MS/MS; type: ADME, organism-based; settings: in vivo

SMILES	IC50 ([1]; read-out: IC50) [nM]	remaining at 0.25 h, 1 µM [2] [%]	further results
N#Cc1ccc(N2C3COCC2CN(C(=O)CCS(=O)(=O)c2cccc4ncsc24)C3)nc1	31		
Cc1cc(F)cnc1N1CCN(C(=O)CCCc2cccc3nc(N)sc23)[C@@H](C)C1		3.7	
Cc1cc(F)cnc1N1CCN(C(=O)CCCc2cccc3cncnc23)[C@@H](C)C1	> 20000		IC50 ([1]; read-out: pIC50 (converted)): > 10000 nM
COc1cc(N2CCN(C(=O)CCCc3cccc4ncccc34)CC2)ccn1	300		
O=C(CCCc1cccc2ncccc12)N1CC2(C1)CN(c1ccc(F)cn1)C2	> 20000		IC50 ([1]; read-out: pIC50 (converted)): > 10000 nM
Cc1cc(F)cnc1N1CCN(C(=O)CCCc2cccc3ncccc23)CC1	69		
O=C(CCCc1cccc2ncccc12)N1CC2CC1CN2c1ccc(F)cn1 (racemic)	950		
N#Cc1ccc(N2CC3CCC(C2)N3C(=O)CCS(=O)(=O)c2cccc3ncsc23)nc1	8.7		
O=C(CCS(=O)(=O)c1cccc2ncsc12)N1CCN(c2ccncc2F)CC1	380	29	
Cc1cc(F)cnc1N1CCN(C(=O)CCCc2cccc3ncccc23)[C@@H](C)C1		0.2	IC50 [3]: 1260 nM; IC50 [4]: 2000 nM; Papp A→B [5]: 8 ×10⁻⁶ cm/s
N#Cc1ccc(N2CCN(C(=O)CCS(=O)(=O)c3cccc4ncsc34)CC2)nc1	5.8	59	Occ [6]: 50%; inhibition (INH) [7]: 69%; Kp uu at 2 h [8]: 0.17; fraction unbound [9]: 0.15; concentration at 2 h [10]: 89 nM; Cp(f) [11]: 13 nM
CC1CN(c2ccc(C#N)cn2)CCN1C(=O)CCS(=O)(=O)c1cccc2ncsc12 (racemic)	22		
Cc1cncc(Cl)c1N1CCN(C(=O)CCS(=O)(=O)c2cccc3ncsc23)CC1	8500		
O=C(CCNS(=O)(=O)c1cccc2ncccc12)N1CCN(c2ccncc2)CC1	130		
O=C(CCS(=O)(=O)c1cccc2ncsc12)N1CCN(c2ccc(C(F)(F)F)cn2)CC1	32	41	
O=C(CCCc1cccc2ncccc12)N1CCN(c2ccncc2)CC1	24		
Cc1cc(F)cnc1N1CCCN(C(=O)CCCc2cccc3ncccc23)CC1	1400		
Cc1cc(F)cnc1N1CCN(C(=O)CNCc2cccc3ncsc23)[C@@H](C)C1	3000		
Cc1cc(F)cnc1N1CCN(C(=O)CCCc2cccc3ncsc23)[C@@H](C)C1	24	5.3	
CC1(C)CN(c2ccc(C#N)cn2)CCN1C(=O)CCS(=O)(=O)c1cccc2ncsc12	4100		
